Laboratory results taken from patent US20150045409A1, “AMIDE COMPOUND AND USE THEREOF FOR PEST CONTROL” (SUMITOMO CHEMICAL COMPANY, LIMITED, priority 2012, published 2015).

Key:
Format in all cases: in vivo
[1] = test system: German cockroaches (Blattella germanica); experiment: Spray knockdown test on German cockroaches (Test Examples 1, 2); conditions: 5 min, 1.5 ml sprayed, counted after 5 minutes, read-out: knockdown rate; for pest or weed control at 0.5 %: active ingredient 0.5% w/v oil solution; for pest or weed control at 2 %: active ingredient 2.0% w/v oil solution
Description: The formulations of Compounds (7), (46), (48) and (54) of the present invention obtained in Formulation Example 7 were diluted with a mixture solution of isopropyl alcohol/deodorized kerosene of 1/9, so as to have a concentration of active ingredient of 2.0% w/v, to prepare a test drug solution.
Ten German cockroaches (Blattella germanica) (5 males and 5 females) were released in a test container (8.75 cm in diameter, 7.5 cm in height, and the bottom made of 16 mesh metallic wire) with the inner wall on which butter was applied, and the container was placed on the bottom of a test chamber (bottom: 46 cm×46 cm, height: 70 cm). From a height of 60 cm above the upper surface of the container, 1.5 ml of the test drug solution was sprayed using a spray gun (a spraying pressure of 0.42 kg/cm^2). Thirty seconds after spraying, the container was taken out from the test chamber, and after 5 minutes, the number of knockdown insects was counted to obtain a knockdown rate. The knockdown rate was calculated by the following equation.
(§1) Knockdown Rate(%)=(Number of Knockdown Insects/Number of Tested Insects)×100
The formulations of Compounds (1), (2), (4), (6) to (8), (10) to (14), (17) to (20), (23) to (25), (28), (31) to (33), (39) to (42), (44) and (50) to (53) of the present invention obtained in Formulation Example 7 were diluted with a mixture solution with a ratio of isopropyl alcohol/deodorized kerosene of 1/9, so as to have a concentration of active ingredient of 0.5% w/v, to prepare a test drug solution.
The test was performed in the same manner as in Test Example 1.

[2] = test system: adult houseflies (Musca domestica); experiment: Filter paper/sucrose bait knockdown test on adult houseflies (Test Example 7); conditions: 0.7 ml on filter paper with sucrose bait, after 2 hours, read-out: knockdown rate
Description: (§2) Each of the formulations of Compounds (2), (4) to (6), (8), (9), (18), (21) to (23), (27), (29), (32) to (36), (38), (41), (42) and (53) of the present invention obtained in Formulation Example 15 was diluted with water, so as to have a concentration of active ingredient of 500 ppm, to prepare a test drug solution.
(§3) On the bottom of a polyethylene cup with a diameter of 5.5 cm, a filter paper of the same size was laid down, and 0.7 ml of the test drug solution was dropped onto the filter paper, then 30 mg of sucrose was uniformly put as bait. Ten adult houseflies (Musca domestica) were released in the polyethylene cup which was then capped. After 2 hours, the number of knockdown insects was counted to obtain a knockdown rate. The knockdown rate was calculated by the following equation.
as §1

[3] = test system: adult houseflies; experiment: Spray knockdown test on adult houseflies (Test Examples 3, 4); conditions: Musca domestica, 10 min, 0.5 ml sprayed, counted after 10 minutes, read-out: knockdown rate; for pest or weed control at 0.5 %: active ingredient 0.5% w/v oil solution; for pest or weed control at 2 %: active ingredient 2.0% w/v oil solution
Description: The formulations of Compounds (7), (46) and (48) of the present invention obtained in Formulation Example 7 were diluted with a mixture solution with a ratio of isopropyl alcohol/deodorized kerosene of 1/9, so as to have a concentration of active ingredient of 2.0% w/v, to prepare a test drug solution.
Ten adult houseflies (5 males and 5 females) were released in a polyethylene cup (a bottom diameter of 10.6 cm) which was then capped with 16-mesh nylon gauze. The polyethylene cup was placed on the bottom of a test chamber (bottom: 46 cm×46 cm, height: 70 cm). From a height of 30 cm above the upper surface of the polyethylene cup, 0.5 ml of the test drug solution was sprayed using a spray gun (a spraying pressure of 0.9 kg/cm^2). Immediately after spraying, the cup was taken out from the test container, and after 10 minutes, the number of knockdown insects was counted to obtain a knockdown rate. The knockdown rate was calculated by the following equation.
as §1
The formulations of Compounds (4), (6), (8), (17) to (19), (28), (29), (33), (40) to (42) and (51) to (53) of the present invention obtained in Formulation Example 7 were diluted with a mixture solution with a ratio of isopropyl alcohol/deodorized kerosene of 1/9, so as to have a concentration of active ingredient of 0.5% w/v, to prepare a test drug solution. The test was performed in the same manner as in Test Example 3.

[4] = test system: last instar larvae of common house mosquitoes (Culex pipiens pallens); experiment: Larvicidal test on common house mosquito larvae in water (Test Examples 9, 10); conditions: active ingredient 3.5 ppm in water
Description: Each of the formulations of Compounds (26) and (45) of the present invention obtained in Formulation Example 15 was diluted with water, so as to have a concentration of active ingredient of 500 ppm, to prepare a test drug solution.
0.7 ml of the test drug solution was added to 100 ml of ion-exchanged water (a concentration of active ingredient of 3.5 ppm).
Each of the formulations of Compounds (5), (6), (24), (27), (29), (30), (33), (38) and (47) of the present invention obtained in Formulation Example 15 was diluted with water, so as to have a concentration of active ingredient of 500 ppm, to prepare a test drug solution.

[5] = test system: adult houseflies (Musca domestica); experiment: Filter paper/sucrose bait mortality test on adult houseflies (Test Example 8); conditions: 0.7 ml on filter paper with sucrose bait, after 24 hours
Description: as §2, with “(2)” for “(2), (4)”, “(12), (15) to” for “(9),”, “(18),” for “(18), (21) to (23),”, “(33), (37)” for “(32)”, “(39),” for “(36), (38),”, “(45)” for “(53)”
as §3, with “capped.” for “capped. After 2 hours, the number of knockdown insects was counted to obtain a knockdown rate. The knockdown rate was calculated by the following equation.”

`CCCCC/C=C/C(=O)NCC1CCOC1` (stereo not drawn) [Compound (1), (E)-N-(tetrahydrofuran-3-ylmethyl)-2-octenamide] was tested, and the pest or weed control at 0.5 % [1] was at least 70%.

For `CCCCCC/C=C/C(=O)NCC1CCOC1` (stereo not drawn) [Compound (2), (E)-N-(tetrahydrofuran-3-ylmethyl)-2-nonenamide], the pest or weed control at 0.5 % [1] was at least 70% and the pest or weed control at 500 ppm [2] was 100%.

With `CCCCCCC/C=C/C(=O)NCC1CCOC1` (stereo not drawn) [Compound (4), (E)-N-(tetrahydrofuran-3-ylmethyl)-2-decenamide] the pest or weed control at 0.5 % [1] was at least 70% and the pest or weed control at 0.5 % [3] was at least 80%.

Work on `CCCCCCCC/C=C/C(=O)NCC1CCOC1` (stereo not drawn) [Compound (5), (E)-N-(tetrahydrofuran-3-ylmethyl)-2-undecenamide] yielded a mortality at 3.5 ppm ([4]; 192 h, after 8 days) of at least 95%.

`CCCCCC/C(C)=C/C(=O)NCC1CCOC1` (stereo not drawn) [Compound (6), (E)-N-(tetrahydrofuran-3-ylmethyl)-3-methyl-2-nonenamide] showed a mortality at 3.5 ppm ([4]; 192 h, after 8 days) of at least 95% and a pest or weed control at 0.5 % [3] of at least 80%.

Compound `CCCCCC/C=C(\F)C(=O)NCC1CCOC1` (stereo not drawn) [Compound (7), (Z)—N-(tetrahydrofuran-3-ylmethyl)-2-fluoro-2-nonenamide] has a pest or weed control at 2 % [1] of at least 80% and a pest or weed control at 2 % [3] of at least 80%.

In the case of `CCCCCC/C(C)=C(\F)C(=O)NCC1CCOC1` (stereo not drawn) [Compound (8), (Z)—N-(tetrahydrofuran-3-ylmethyl)-2-fluoro-3-methyl-2-nonenamide], the mortality at 500 ppm [5] is reported as at least 90%, the pest or weed control at 500 ppm [2] is reported as 100% and the pest or weed control at 0.5 % [3] is reported as at least 80%.

With `CCCCCC/C(C)=C(/F)C(=O)NCC1CCOC1` (stereo not drawn) [Compound (9), (E)-N-(tetrahydrofuran-3-ylmethyl)-2-fluoro-3-methyl-2-nonenamide] the pest or weed control at 500 ppm [2] was 100%.

Work on `C=CCCCCC/C=C/C(=O)NCC1CCOC1` (stereo not drawn) [Compound (12), (E)-N-(tetrahydrofuran-3-ylmethyl)-deca-2,9-dienamide] yielded a mortality at 500 ppm [5] of at least 90%.

`CCCC1CC1/C=C/C(=O)NCC1CCOC1` (stereo not drawn) [Compound (18), (E)-N-(tetrahydrofuran-3-ylmethyl)-3-(trans-2′-propylcyclopropyl)-2-propenamide] was tested, and the pest or weed control at 500 ppm [2] was 100%.

`CCCCC/C=C/C(=O)NCC1CCOCC1` [Compound (24), (E)-N-(tetrahydropyran-4-ylmethyl)-2-octenamide] gave a mortality at 3.5 ppm ([4]; 192 h, after 8 days) of at least 95%.

`CCCCCCC/C=C/C(=O)NCC1CCOCC1` [Compound (26), (E)-N-(tetrahydropyran-4-ylmethyl)-2-decenamide] was tested, and the mortality at 3.5 ppm ([4]; after a day) was at least 95%.

Work on `CCCCCCCC/C=C/C(=O)NCC1CCOCC1` [Compound (27), (E)-N-(tetrahydropyran-4-ylmethyl)-2-undecenamide] yielded a mortality at 500 ppm [5] of at least 90%, a pest or weed control at 500 ppm [2] of 100% and a mortality at 3.5 ppm ([4]; 192 h, after 8 days) of at least 95%.

Work on `CCCCCC/C(C)=C/C(=O)NCC1CCOCC1` [Compound (28), (E)-N-(tetrahydropyran-4-ylmethyl)-3-methyl-2-nonenamide] yielded a pest or weed control at 0.5 % [1] of at least 70% and a pest or weed control at 0.5 % [3] of at least 80%.

With `CCCCCC/C(C)=C(\F)C(=O)NCC1CCOCC1` [Compound (29), (Z)—N-(tetrahydropyran-4-ylmethyl)-2-fluoro-3-methyl-2-nonenamide] the mortality at 500 ppm [5] was at least 90%, the pest or weed control at 500 ppm [2] was 100% and the mortality at 3.5 ppm ([4]; 192 h, after 8 days) was at least 95%. It also gave a pest or weed control at 0.5 % [3] of at least 80%.

`CCCCCC/C(C)=C(/F)C(=O)NCC1CCOCC1` [Compound (30), (E)-N-(tetrahydropyran-4-ylmethyl)-2-fluoro-3-methyl-2-nonenamide] was tested, and the mortality at 3.5 ppm ([4]; 192 h, after 8 days) was at least 95%.

In the case of `C=CCCCCC/C=C/C(=O)NCC1CCOCC1` [Compound (33), (E)-N-(tetrahydropyran-4-ylmethyl)-deca-2,9-dienamide], the mortality at 500 ppm [5] is reported as at least 90%, the mortality at 3.5 ppm ([4]; 192 h, after 8 days) is reported as at least 95% and the pest or weed control at 0.5 % [3] is reported as at least 80%.

Compound `C#CCCCC/C=C/C(=O)NCC1CCOCC1` [Compound (38), (E)-N-(tetrahydropyran-4-ylmethyl)-non-2-en-8-ynamide] has a pest or weed control at 500 ppm [2] of 100% and a mortality at 3.5 ppm ([4]; 192 h, after 8 days) of at least 95%.

Work on `CCCC1CC1/C=C/C(=O)NCC1CCOCC1` (stereo not drawn) [Compound (41), (E)-N-(tetrahydropyran-4-ylmethyl)-3-(trans-2′-propylcyclopropyl)-2-propenamide] yielded a mortality at 500 ppm [5] of at least 90% and a pest or weed control at 500 ppm [2] of 100%.

`CCCCC1CC1/C=C/C(=O)NCC1CCOCC1` (stereo not drawn) [Compound (42), (E)-N-(tetrahydropyran-4-ylmethyl)-3-(trans-2′-butylcyclopropyl)-2-propenamide] showed a mortality at 500 ppm [5] of at least 90% and a pest or weed control at 500 ppm [2] of 100%.

For `CCC1CC1CC/C=C/C(=O)NCC1CCOCC1` (stereo not drawn) [Compound (44), (E)-N-(tetrahydropyran-4-ylmethyl)-5-(trans-2′-ethylcyclopropyl)-2-pentenamide], the pest or weed control at 0.5 % [1] was at least 70%.

`CCCCCC/C=C/C(=O)NCC1CCCCO1` (stereo not drawn) [Compound (46), (E)-N-(tetrahydropyran-2-ylmethyl)-2-nonenamide] was tested, and the pest or weed control at 2 % [1] was at least 80% and the pest or weed control at 2 % [3] was at least 80%.

`CCCCCC/C=C/C(=O)NCC1COCCO1` (stereo not drawn) [Compound (47), (E)-N-(1,4-dioxan-2-ylmethyl)-2-nonenamide] showed a mortality at 3.5 ppm ([4]; 192 h, after 8 days) of at least 95%.

Compound `CCCCCC/C=C/C(=O)NCC1(CC)COCOC1` [Compound (48), (E)-N-(5-ethyl-1,3-dioxan-5-ylmethyl)-2-nonenamide] has a pest or weed control at 2 % [1] of at least 80% and a pest or weed control at 2 % [3] of at least 80%.

For `CC1CC1C1CC1/C=C/C(=O)NCC1CCOCC1` (stereo not drawn) [Compound (53), (E)-N-(tetrahydropyran-4-ylmethyl)-3-(trans-2′-(trans-2″-methylcyclopropyl)cyclopropyl)-2-propenamide], the pest or weed control at 500 ppm [2] was 100%.

For `O=C(/C=C/CCCCCl)NCC1CCOCC1` [Compound (54), (E)-N-(tetrahydropyran-4-ylmethyl)-7-chloro-2-heptenamide], the pest or weed control at 2 % [1] was at least 80%.
